Measured values: patent US6031084A, “Azoamide compound” (Wako Pure Chemical Industries, Ltd., priority 1998, dated 2000)

Key:
[1] = Measurement of Solubility in various kinds of polar solvents; assay type: physicochemical; conditions: for Solubility in 2-butanol: solvent: 2-butanol; for Solubility in Acetone: solvent: Acetone; for Solubility in Methanol: solvent: Methanol; for Solubility in Tetrahydrofuran: solvent: Tetrahydrofuran; for Solubility in Water: solvent: Water
Protocol: Solubilities of 2,2'-azobis[N-(butanol-2-yl)-2-methylpropionamide] (hereinafter abbreviated as Present compound 1) obtained by Example 1 and 2,2'-azobis[N-(propanol-2-yl)-2-methylpropionamide] (hereinafter abbreviated as Present compound 2) obtained by Example 2 to various kinds of polar solvent was measured.
The same measurement of solubility as Experiment 1 was conducted except for using of 2,2'-azobis[2-methyl-N-(2-hydroxyethyl)-propionamide] [drawing 9] (hereinafter abbreviated as Known compound 1), 2,2'-azobis {2-methyl-N-[1,1-bis(hydroxymethyl)-2-hydroxyethyl] propionamide} [drawing 10] (hereinafter abbreviated as Known compound 2) and 2,2'-azobis {2-methyl-N-[1,1-bis(hydroxymethyl)ethyl] propionamide} [drawing 11] (hereinafter abbreviated as Known compound 3) in place of Present compound 1.

[2] = 10 hours half life temperature (thermal decomposition); assay type: physicochemical

CC(CO)NC(=O)C(C)(C)N=NC(C)(C)C(=O)NC(C)CO (racemic) [Present compound 2, 2,2'-azobis[N-(propanol-2-yl)-2-methylpropionamide]]
Solubility in a various kind of polar solvents compared with Known compounds 1, 2 and 3 (in words) [1]: remarkably higher
Solubility in rather low polar solvents such as 2-butanol (in words) [1]: soluble
Solubility in 2-butanol [1]: < 0.l
Solubility in Acetone [1]: 0.3 g
Solubility in Methanol [1]: 6.5 g
Solubility in Tetrahydrofuran [1]: 0.3 g
Solubility in Water [1]: 0.6 g
10 hours half life temperature [2]: 83.1 °C

CC(C)(N=NC(C)(C)C(=O)NCCO)C(=O)NCCO [Known compound 1, 2,2'-azobis[2-methyl-N-(2-hydroxyethyl)-propionamide]]
Solubility in 2-butanol [1]: insoluble
Solubility in Acetone [1]: insoluble
Solubility in Methanol [1]: 4.55 g
Solubility in Tetrahydrofuran [1]: insoluble
Solubility in Water [1]: 2.4 g

CC(C)(N=NC(C)(C)C(=O)NC(CO)(CO)CO)C(=O)NC(CO)(CO)CO [Known compound 2, 2,2'-azobis {2-methyl-N-[1,1-bis(hydroxymethyl)-2-hydroxyethyl]propionamide}]
Solubility in 2-butanol [1]: insoluble
Solubility in Acetone [1]: insoluble
Solubility in Methanol [1]: 1.89 g
Solubility in Tetrahydrofuran [1]: insoluble
Solubility in Water [1]: 2.0 g

CC(CO)(CO)NC(=O)C(C)(C)N=NC(C)(C)C(=O)NC(C)(CO)CO [Known compound 3, 2,2'-azobis {2-methyl-N-[1,1-bis(hydroxymethyl)ethyl]propionamide}]
Solubility in 2-butanol [1]: insoluble
Solubility in Acetone [1]: insoluble
Solubility in Methanol [1]: 5.18 g
Solubility in Tetrahydrofuran [1]: insoluble
Solubility in Water [1]: 0.6 g

CC[C@H](CO)NC(=O)C(C)(C)N=NC(C)(C)C(=O)N[C@H](CC)CO [Present compound 1, 2,2'-azobis[N-(butanol-2-yl)-2-methylpropionamide]]
Solubility in a various kind of polar solvents compared with Known compounds 1, 2 and 3 (in words) [1]: remarkably higher
Solubility in rather low polar solvents such as 2-butanol (in words) [1]: soluble
Solubility in 2-butanol [1]: > 10 g
Solubility in Acetone [1]: > 10 g
Solubility in Methanol [1]: > 10 g
Solubility in Tetrahydrofuran [1]: > 10 g
Solubility in Water [1]: > 10 g
10 hours half life temperature [2]: 84.7 °C
